The values that follow come from publication PMC12397098, “3-Monothiopomalidomide, a new immunomodulatory imide drug (IMiD), blunts inflammation and mitigates ischemic stroke in the rat” (GeroScience, 2025).

Read-outs that look alike come from different tables or passages of the source.

Series [1] is described as follows: Pharmacokinetics in the rat, I.V. and P.O. The series is classed as in vivo. As for the experimental part: To evaluate the metabolism of 3-MP, ex vivo plasma and liver homogenate studies were performed across species (rat and human), and in vivo pharmacokinetic studies were performed in rats following intravenous (I.V.) and oral (P.O.) administration of 3-MP (5 mg/kg) to time-dependently follow its disappearance from the plasma compartment.
Fig. 5 3-MP pharmacokinetics. 3-MP was administered to rats via the intravenous (I.V.) and oral (P.O.) routes, and time-dependent plasma levels were obtained and subjected to LC–MS/MS analysis (n = 3/group). Pharmacokinetic profile of 3-MP following a 5 mg/kg dose by either the I.V. or P.O route. Time-dependent plasma concentrations of 3-MP (n = 3/group)

The test system of series [2] is human PBMCs. The experiment in a line: LDH in media of LPS-challenged human PBMCs (cellular toxicity). The series is classed as cell-based. The following applies: 10 ng/ml LPS, 24 h, 3-MP 0 to 30 μM, vs LPS alone. As for the experimental part: (§1) Human peripheral blood mononuclear cells (PBMCs), purchased from ATCC (Cat no. PCS-800–011, Lot no. 81215231, Manassas, VA, USA), were washed with ice-cold HBSS (ATCC 30–2213) containing 10% fetal bovine serum (FBS: ATCC 30–2020) and used for the experiment directly. The washed cells were suspended and maintained in RPMI media supplemented with 10% FBS, penicillin 100 U/mL, and streptomycin 100 µg/mL at 37 °C and 5% CO2. Approximately 5 × 10^5 cells were seeded into 24-well plates and allowed to equilibrate for 2 h. Pomalidomide or 3-MP, dissolved in 100% tissue culture grade dimethylsulfoxide (DMSO: Sigma Aldrich, St Louis, MO, USA), was then added to the wells. The final concentrations of drugs were 0.0, 0.6, 1.0, 10, 30, and 60 µM (n = 3–4 for each group). At 1 h after initiation of treatment, the cells were challenged with lipopolysaccharide (LPS, Sigma Aldrich, E.Coli 055:B5, Cat no. L4005-100MG, Lot no. 0000218759, Endotoxin Unit: 500,000 EU/mg, at a concentration of 10 ng/mL), and the media was collected after a further 24 h for evaluation of lactate dehydrogenase (LDH) activity as a marker of drug-induced cellular toxicity and concentrations of nitrite (In Vitro Toxicology Assay Kit, Lactic Dehydrogenase based, Promega, Cat no. G7891, Madison, WI, USA) (Griess Reagent System, Promega, Cat no. G2930) and TNF-α (human TNF-α ELISA MAX™ Deluxe Set Cat no. […]

The test system of series [3] is TNF-α in LPS-challenged human PBMCs. The experiment in a line: TNF-α in media of LPS-challenged human PBMCs. The following applies: 10 ng/ml LPS, 24 h, 3-MP 0 to 30 μM, vs LPS alone. The series is classed as cell-based. As for the experimental part:
as §1

Series [4] in a line: Brain entry in rats (brain and plasma at 5 h). The class given is in vivo. To be noted: male, Fischer 344, rat, brain. On the procedure:
The animals were euthanized at 5 h post-dosing, and plasma and a brain sample were taken, frozen to − 80 °C, and later assayed for 3-MP by LC–MS/MS.
LC–MS/MS analysis was performed with a Vanquish Flex UHPLC (Thermo Scientific, Waltham MA, USA) and an Orbitrap Exploris 240 mass spectrometer (Thermo Scientific). Samples were separated on a C18 UHPLC column (100 mm × 2.1 mm, 3 μm; Thermo Scientific). The mobile phase A for LC separation was 0.1% formic acid and the mobile phase B was 0.1% formic acid in methanol. The chromatography gradient was initiated at 95% A and 5% B at zero time. This was continued for 1 min and, thereafter, linearly changed to 5% A and 95% B by 9 min. This was then maintained for a further 3 min. The flow rate was 0.3 mL/min, and the injection volume was 2 μl. Mass spectra were acquired using the data-dependent Top 4 MS2 (ddMS2) method with a mass scan (100–1000 m/z) and 120,000 MS resolution.

The mark [5] stands for this setting: iv, rat plasma, I.V. bolus 5 mg/kg.

What is called AUC(0-inf) is the area under the concentration-time curve extrapolated to infinity. Lower therefore signals low exposure. As usually defined, the AUC(0-t) is exposure summed from dosing to a finite time, without extrapolation to infinity. Lower therefore signals less exposure. The Cmax is the peak of the concentration-time curve. As a reminder, the half-life is how long it takes for the measured level to halve. For orientation: bioavailability means the share of a dose that reaches the circulation, judged against a reference dose that is usually intravenous. Low values mean little systemic uptake, high ones much systemic uptake. In the case of `Nc1cccc2c1C(=S)N(C1CCC(=O)NC1=O)C2=O` (stereo not drawn) [3-MP, 3-Monothiopomalidomide], the AUC(0-inf) in series [1] (setting [5]) was 15200 ng·h/mL; in series [1] (po, rat plasma, P.O. 5 mg/kg), 5860 ng·h/mL. Besides, the AUC(0-t) was 15100 ng·h/mL in series [1] (setting [5]) and 5560 ng·h/mL in series [1] (po, rat plasma, P.O. 5 mg/kg). Moreover, the C0 in series [1] (setting [5]) worked out at 8150 ng/mL. This molecule also returned a clearance in series [1] (plasma, iv, rat, I.V. bolus 5 mg/kg) of 5.65 mL/min/kg. Besides, the Vd in series [1] (plasma, iv, rat, I.V. bolus 5 mg/kg, read-out: Vdss) came out at 0.693 L/kg. Also, the Cmax in series [1] (po, rat plasma, P.O. 5 mg/kg) came out at 1020 ng/mL. The same molecule gave a T1/2 in series [1] (rat plasma, P.O. 5 mg/kg, 5 mg/kg) of 3.21 h. The half-life in series [1] (rat, plasma, iv, 5 mg/kg, rat plasma, I.V. bolus 5 mg/kg) is 93.6 min; in series [1] (rat, plasma, po, 5 mg/kg, rat plasma, P.O. 5 mg/kg) it was 192 min. In addition, the bioavailability in series [1] (rat, plasma, oral, 5 mg/kg, rat, P.O. vs I.V., 5 mg/kg) is around 38.5%. The Tmax in series [1] (rat, plasma, po, 5 mg/kg, rat plasma, P.O. 5 mg/kg, read-out: Tmax) is 1.67 h; in series [1] (rat, plasma, po, 5 mg/kg, rat, oral gavage 5 mg/kg, read-out: time of peak concentration in plasma (converted)) it was 1.67 h. Also, the LDH media levels result in series [2] is reported as “without elevating”. Also, the “TNF-α levels in media” value in series [3] is listed as “dose-dependently reduced”. In addition, the Kp at 5 h in series [4] (ip, 13.25 mg/kg, 13.25 mg/kg I.P., read-out: Brain/plasma ratio) is 0.52; in series [4] (ip, 26.5 mg/kg, 26.5 mg/kg I.P., read-out: Brain/plasma ratio) it was 0.61; in series [4] (other: I.P. or P.O., 13.25 or 26.50 mg/kg I.P. or P.O., read-out: brain concentrations as % of concomitant plasma levels), 0.51 to 0.61; in series [4] (other: I.P. or oral (P.O.), across I.P. and P.O. doses, read-out: brain/plasma concentration ratio), 0.5 to 0.6; in series [4] (po, 26.5 mg/kg, 26.5 mg/kg P.O., read-out: Brain/plasma ratio) it was 0.51.
